The target in data set [1] is T1, N-type Ca2+ channels in IMR-32 cells (Homo sapiens, UniProt Q00975).
T1 construct: host or cells: IMR-32 cells, differentiated with dibutyryl cAMP and bromodeoxyuridine
In words: Inhibition of N-type calcium flux in IMR-32 cells (Indo-1 fluorescence, nitrendipine present). The data set is classed as cell-based. As to conditions: for inhibition at 1 µM / inhibition at 10 µM: IMR-32. The essentials:
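With L-type flux blocked by 5 μM nitrendipine, N-type Ca2+ entry was read as the Indo-1 emission ratio (400/490 nm, excitation 350 nm) at 30° C after KCl depolarization.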

In data set [2] the target is T2, L-type Ca2+ channels in A10 cells (Rattus norvegicus, UniProt P22002).
T2 construct: which endogenously expresses L-type calcium channels; host or cells: A10 rat aortic smooth muscle cells
In words: Inhibition of L-type calcium flux in A10 cells (FLIPR). The data set is classed as cell-based. How it is done:
Measurement of L-type Ca^2+ Channel Blocking Potencies of Compounds in A10 cells
Calcium flux through voltage-sensitive calcium channels was assessed by time-resolved monitoring of the fluorescence of pre-loaded calcium-sensitive dyes using FLIPR, a fluorescent image plate reader (Molecular Devices Co.). The A10 smooth muscle cell line derived from embryonic thoracic aorta of the DBIX rat (ATCC, CRL-1476) which endogenously expresses L-type calcium channels. The growth media for A10 cells was Ham's F12/DME high glucose (Irvine Scientific, 9052), supplemented with 20% fetal bovine serum (HyClone Labs, A-1115-L), and 1% each of L-glutamine and antibiotic-antimycotic (same source as above).
Cells were grown to confluency and replated on black-sided 96-well plates (Costar, 3603) for use in FLIPR. Two days after replating, growth media was removed and cells were loaded at 37° C. with 100 μL media containing 1 μM Oregon Green 488 Bapta-1 dye (Molecular Probes, O-6807) for 1 to 3 hours. The dye-containing media was then washed away with buffer (composition in mM: 1.25 CaCl2, 1.2 MgSO4, 11 glucose, 10 HEPES, 3.0 KCl, 137.0 NaCl, pH 7.4 with Tris base) in a Denley Cellwash (Labsystems, CW018B). The residual buffer volume was adjusted to 50 μL. A 5 minute drug-pre-incubation period at 35° C. was initiated when 50 μL of drug-containing buffer was pipetted into the cell plate with the 96-well pipettor integrated in the FLIPR apparatus. Fluorescent counts were monitored at 20 second intervals for 360 seconds, beginning 60 seconds prior to the delivery of drug-containing buffer. Following drug addition, 100 μL aliquots of a high K^+, depolarizing stimulus (composition in mM: 1.25 CaCl2, 1.2 MgSO4, 11 glucose, 10 HEPES, 140.0 KCl, pH 7.4 with Tris base) were added to each well and fluorescence was monitored at 1 second intervals for 120 seconds, beginning 10 seconds prior to the stimulus addition. CCD camera exposure time was 0.4 seconds, laser excitation was at 488 nm with a power of 0.2-0.5W, and a 510 to 560 nm bandpass interference filter preceded the camera.
Data was analyzed as a summation of fluorescent counts above basal during the stimulation period (an approximation of area under the curve), after normalizing the data with a spatial uniformity correction (for variations in laser illumination and cell density) and a negative control correction (zero calcium increase defined as the fluorescence reading in the presence of saturating pharmacologic block of the respective calcium channel). Drug effects were expressed as percent inhibition of fluorescence from an average of 8 K^+-stimulated wells which were pre-treated in the drug incubation period with buffer only.
In the A10 cells, the pharmacologic agent used to define zero calcium influx was nitrendipine (RBI, N-144), at a final concentration of 1.0×10^−6 M.
On the technique in general: Calcium flux is commonly read through the fluorescence of an indicator in the cells.

Data set [3] has as its system K+ channels in superior cervical ganglion (SCG) neurons. In words: Whole-cell voltage clamp, K+ current in SCG neurons. Type of data set: cell-based, rat. As to conditions: 10 μM. In short, it runs like this:
(§1)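 Percent inhibition of control amplitude at steady-state block is the read-out: peak inward Na+ current at 0 mV, sustained K+ current at +50 mV, 35 msec steps every 10 sec from −65 to −55 mV. Recordings used whole-cell clamp of trypsin-dissociated SCG neurons, pH 7.4 external and pipette solutions, compounds applied by local perfusion.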

The test system of data set [4] is Na+ channels in superior cervical ganglion (SCG) neurons. As to the kind of experiment: Whole-cell voltage clamp, Na+ current in SCG neurons. The data set is classed as cell-based, rat. As to conditions: 10 μM. The essentials: as §1

In general, inhibition refers to the relative decrease from the control value, in per cent. Broadly, the IC50 is the concentration that inhibits the measured activity by half. In general, melting point refers to the temperature, or range, at which the solid turns liquid.

T1 sequence (Q00975 whole entry): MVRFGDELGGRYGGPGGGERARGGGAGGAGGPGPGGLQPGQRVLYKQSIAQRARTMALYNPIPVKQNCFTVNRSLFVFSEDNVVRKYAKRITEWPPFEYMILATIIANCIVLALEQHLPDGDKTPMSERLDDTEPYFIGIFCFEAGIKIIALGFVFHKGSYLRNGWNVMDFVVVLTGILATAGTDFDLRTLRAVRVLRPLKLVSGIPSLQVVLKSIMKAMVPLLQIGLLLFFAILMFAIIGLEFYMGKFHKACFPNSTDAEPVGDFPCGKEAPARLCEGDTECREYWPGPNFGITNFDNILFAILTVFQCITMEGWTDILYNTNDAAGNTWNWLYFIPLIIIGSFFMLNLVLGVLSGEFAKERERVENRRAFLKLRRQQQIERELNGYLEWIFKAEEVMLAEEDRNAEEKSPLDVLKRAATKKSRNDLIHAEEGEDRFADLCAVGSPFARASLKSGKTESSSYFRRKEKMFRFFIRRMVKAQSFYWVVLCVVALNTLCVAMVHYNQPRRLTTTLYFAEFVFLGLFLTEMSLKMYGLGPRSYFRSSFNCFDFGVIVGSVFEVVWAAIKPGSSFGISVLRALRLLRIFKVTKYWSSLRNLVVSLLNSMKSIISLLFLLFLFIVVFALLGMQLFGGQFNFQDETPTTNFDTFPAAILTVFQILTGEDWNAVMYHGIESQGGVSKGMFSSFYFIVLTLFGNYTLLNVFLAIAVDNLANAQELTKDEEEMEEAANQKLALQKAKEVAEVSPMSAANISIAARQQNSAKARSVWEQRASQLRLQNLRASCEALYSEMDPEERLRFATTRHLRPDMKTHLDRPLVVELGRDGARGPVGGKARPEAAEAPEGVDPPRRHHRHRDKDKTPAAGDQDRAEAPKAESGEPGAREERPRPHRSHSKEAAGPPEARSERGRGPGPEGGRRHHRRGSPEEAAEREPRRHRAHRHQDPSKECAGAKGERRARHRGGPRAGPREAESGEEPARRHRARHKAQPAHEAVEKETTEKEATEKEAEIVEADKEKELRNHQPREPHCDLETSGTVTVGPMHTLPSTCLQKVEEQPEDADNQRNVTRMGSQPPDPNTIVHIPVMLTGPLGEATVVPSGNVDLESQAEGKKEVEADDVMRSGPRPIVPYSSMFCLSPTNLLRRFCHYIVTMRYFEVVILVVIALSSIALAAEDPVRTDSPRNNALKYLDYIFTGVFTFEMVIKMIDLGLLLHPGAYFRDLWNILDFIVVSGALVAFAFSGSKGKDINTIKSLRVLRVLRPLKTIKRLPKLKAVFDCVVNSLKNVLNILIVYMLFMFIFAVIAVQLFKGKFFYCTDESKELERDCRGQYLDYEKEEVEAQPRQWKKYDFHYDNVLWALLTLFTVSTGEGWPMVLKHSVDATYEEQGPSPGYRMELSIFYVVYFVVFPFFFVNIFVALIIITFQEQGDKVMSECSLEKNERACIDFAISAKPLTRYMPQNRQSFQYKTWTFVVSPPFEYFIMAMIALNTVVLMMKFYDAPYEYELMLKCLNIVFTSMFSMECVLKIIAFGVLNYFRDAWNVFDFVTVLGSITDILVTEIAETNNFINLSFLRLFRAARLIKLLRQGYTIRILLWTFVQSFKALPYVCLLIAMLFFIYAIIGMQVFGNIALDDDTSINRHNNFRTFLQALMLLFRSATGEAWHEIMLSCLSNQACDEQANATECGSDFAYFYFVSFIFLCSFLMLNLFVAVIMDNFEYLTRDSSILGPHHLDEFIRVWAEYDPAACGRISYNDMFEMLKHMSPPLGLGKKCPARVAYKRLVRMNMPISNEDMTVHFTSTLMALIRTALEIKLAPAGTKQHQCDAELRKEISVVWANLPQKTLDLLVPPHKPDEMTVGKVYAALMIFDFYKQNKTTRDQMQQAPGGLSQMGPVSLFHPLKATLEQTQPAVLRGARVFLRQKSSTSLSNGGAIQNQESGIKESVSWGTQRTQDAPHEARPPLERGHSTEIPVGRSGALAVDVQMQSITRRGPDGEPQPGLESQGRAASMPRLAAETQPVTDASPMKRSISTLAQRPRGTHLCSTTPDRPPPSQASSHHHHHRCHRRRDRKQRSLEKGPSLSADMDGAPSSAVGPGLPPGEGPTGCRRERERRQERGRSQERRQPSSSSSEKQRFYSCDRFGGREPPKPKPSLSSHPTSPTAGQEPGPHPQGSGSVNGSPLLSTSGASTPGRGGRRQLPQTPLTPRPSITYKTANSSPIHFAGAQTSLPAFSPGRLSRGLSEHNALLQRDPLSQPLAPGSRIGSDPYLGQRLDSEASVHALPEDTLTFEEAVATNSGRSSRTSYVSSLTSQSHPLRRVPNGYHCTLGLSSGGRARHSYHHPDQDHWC
T1 sequence (P54289 25-956 partner limits assumed): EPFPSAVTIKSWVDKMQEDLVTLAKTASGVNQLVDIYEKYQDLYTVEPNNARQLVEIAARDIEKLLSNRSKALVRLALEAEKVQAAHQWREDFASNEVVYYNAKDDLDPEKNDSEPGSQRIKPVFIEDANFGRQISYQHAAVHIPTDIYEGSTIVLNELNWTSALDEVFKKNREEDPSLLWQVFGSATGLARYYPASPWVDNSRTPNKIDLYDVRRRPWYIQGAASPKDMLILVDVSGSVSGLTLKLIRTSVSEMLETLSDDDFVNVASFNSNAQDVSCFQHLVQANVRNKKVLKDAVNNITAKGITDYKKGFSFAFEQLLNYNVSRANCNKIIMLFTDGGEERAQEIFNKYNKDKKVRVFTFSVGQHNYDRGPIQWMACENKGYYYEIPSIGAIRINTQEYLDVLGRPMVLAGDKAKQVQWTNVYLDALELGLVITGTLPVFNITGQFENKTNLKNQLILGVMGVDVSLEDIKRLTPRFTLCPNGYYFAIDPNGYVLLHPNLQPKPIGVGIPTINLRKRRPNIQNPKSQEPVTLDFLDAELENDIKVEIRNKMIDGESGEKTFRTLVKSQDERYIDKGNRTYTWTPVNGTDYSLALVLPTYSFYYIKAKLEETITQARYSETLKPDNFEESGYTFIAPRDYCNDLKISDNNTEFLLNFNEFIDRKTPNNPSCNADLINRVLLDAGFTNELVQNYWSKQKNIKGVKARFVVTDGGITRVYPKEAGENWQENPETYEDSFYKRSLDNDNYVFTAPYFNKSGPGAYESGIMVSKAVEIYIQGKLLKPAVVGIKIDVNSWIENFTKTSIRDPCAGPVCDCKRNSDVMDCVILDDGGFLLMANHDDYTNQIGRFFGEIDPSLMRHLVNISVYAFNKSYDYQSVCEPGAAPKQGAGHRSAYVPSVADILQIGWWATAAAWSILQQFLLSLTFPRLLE
T1 sequence (P54289 957-1103 partner limits assumed): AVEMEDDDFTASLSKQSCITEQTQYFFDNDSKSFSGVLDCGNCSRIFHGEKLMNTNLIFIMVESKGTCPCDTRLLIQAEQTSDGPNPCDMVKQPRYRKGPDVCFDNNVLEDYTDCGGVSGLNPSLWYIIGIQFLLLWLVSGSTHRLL
T1 sequence (P54284 whole entry partner): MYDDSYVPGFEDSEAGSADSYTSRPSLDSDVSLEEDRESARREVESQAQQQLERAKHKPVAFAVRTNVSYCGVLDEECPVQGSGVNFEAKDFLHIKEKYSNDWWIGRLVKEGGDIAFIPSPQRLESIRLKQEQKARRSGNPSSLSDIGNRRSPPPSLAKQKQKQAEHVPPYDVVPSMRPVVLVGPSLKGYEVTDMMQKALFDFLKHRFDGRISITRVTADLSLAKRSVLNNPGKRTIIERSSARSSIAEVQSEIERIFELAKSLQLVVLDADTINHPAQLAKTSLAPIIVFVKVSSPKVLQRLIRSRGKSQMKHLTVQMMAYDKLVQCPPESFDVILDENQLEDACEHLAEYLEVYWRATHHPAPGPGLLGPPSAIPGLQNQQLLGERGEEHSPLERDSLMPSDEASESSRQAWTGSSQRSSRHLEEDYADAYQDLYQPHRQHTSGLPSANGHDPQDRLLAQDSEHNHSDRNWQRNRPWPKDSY

The molecule `CC(C)C[C@H](NS(=O)(=O)c1ccc(C(C)(C)C)cc1)C(=O)N[C@@H](Cc1ccc(OCc2ccccc2)cc1)C(=O)OC(C)(C)C` [Example 36, [S-(R*,R*)]-3-(4-Benzyloxy-phenyl)-2(S)-[2(S)-(4-tert-butyl-benzenesulfonylamino)-4-methyl-pentanoylamino]-propionic acid tert-butyl ester] had a melting point of 142 to 143 °C. In data set [1], the inhibition at 1 µM amounted to 71% and the inhibition at 10 µM was 86%. Further, the IC50 in data set [1] (IMR-32 cells, 5 μM nitrendipine, K+ depolarization) was 170 nM. The 50% inhibitory concentration (IC50) in data set [2] came to 3000 nM. In addition, in data set [3], the “Inhibition of K+ Current, % Inhibition at 10 μM” value is given as 92%. The “Inhibition of Na+ Current, % Inhibition at 10 μM” value in data set [4] is reported as 91%.
The molecule `CC(C)C[C@H](NC(=O)N1CCCCCC1)C(=O)N[C@@H](Cc1ccc(CCc2ccccc2)cc1)C(=O)NC(C)(C)C` [Example 144, [S-(R*,R*)]-Azepane-1-carboxylic acid {1-[1-tert-butylcarbamoyl-2-(4-phenethyl-phenyl)-ethylcarbamoyl]-3-methyl-butyl}-amide] displayed a melting point of 155 to 156 °C. Besides, in data set [1], the inhibition at 1 µM amounted to 61% and the inhibition at 10 µM is 86%. Further, the IC50 in data set [2] is 550 nM.
Molecule `CC(C)C[C@H](NC(=O)N1CCCCCC1)C(=O)N[C@@H](Cc1ccc(CCC(C)(C)C)cc1)C(=O)NC(C)(C)C` [Example 145, [S-(R*,R*)]-Azepane-1-carboxylic acid (1-{1-tert-butylcarbamoyl-2-[4-(3,3-dimethyl-butyl)-phenyl]-ethylcarbamoyl}-3-methyl-butyl)-amide] yielded a melting point of 180 to 181 °C. Also, the inhibition at 1 µM in data set [1] was determined as 48%. For the same molecule, the IC50 in data set [2] stood at 250 nM.
In the case of `CC(C)C[C@H](NC(=O)N1CCCCCC1)C(=O)N[C@@H](Cc1ccc(CCC2CCCCC2)cc1)C(=O)NC(C)(C)C` [Example 146, [S-(R*,R*)]-Azepane-1-carboxylic acid (1-{1-tert-butylcarbamoyl-2-[4-(2-cyclohexyl-ethyl)-phenyl]-ethylcarbamoyl}-3-methyl-butyl)-amide], the melting point turned out to be 165 °C. Moreover, the inhibition at 1 µM in data set [1] is 51%. The 50% inhibitory concentration (IC50) in data set [2] was determined as 220 nM.
Regarding `CC(C)C[C@H](NC(=O)N1CCCCCC1)C(=O)N[C@@H](Cc1ccc(CCc2ccccn2)cc1)C(=O)NC(C)(C)C` [Example 147, [S-(R*,R*)]-Azepane-1-carboxylic acid (1-{1-tert-butylcarbamoyl-2-[4-(2-pyridin-2-yl-ethyl)-phenyl]-ethylcarbamoyl}-3-methyl-butyl)-amide], the melting point lay within 154 to 156 °C. In data set [1], the inhibition at 1 µM came to 25% and the inhibition at 10 µM was found to be 71%. Besides, the IC50 in data set [2] worked out at 5100 nM.
As to `CC(C)C[C@H](NC(=O)N1CCCCCC1)C(=O)N[C@@H](Cc1ccc(CCC2(O)CCCCC2)cc1)C(=O)NC(C)(C)C` [Example 148, [S-(R*,R*)]-Azepane-1-carboxylic acid [1-(1-tert-butylcarbamoyl-2-{4-[2-(1-hydroxy-cyclohexyl)-ethyl]-phenyl}-ethylcarbamoyl)-3-methyl-butyl]-amide], the melting point fell in the range of 101 to 102 °C. In data set [1], the inhibition at 1 µM is 30% and the inhibition at 10 µM was found to be 68%. For the same molecule, the half-inhibitory concentration (IC50) in data set [2] was determined as 970 nM.

For the origin of these results see patent publication US6423689B1, “Peptidyl calcium channel blockers” (Warner-Lambert Company, priority 1997, dated 2002).
